The results in this text go back to patent US9035073B2, “3-phenyl-3-methoxy-pyrrolidine derivatives useful as modulators of cortical catecholaminergic neurotransmission” (INTEGRATIVE RESEARCH LABORATORIES SWEDEN AB, priority 2008, dated 2015).

Series [1] concerns Norepinephrine (NA) in Striatum. Description: Microdialysis in awake and freely moving rats, NA in striatum. In kind it is in vivo, rat. To be noted: 50 μmol/kg s.c., awake freely moving rats. The source says: (§1) Male Sprague-Dawley rats weighing 220-320 g were used throughout the experiments. Before the experiment the animals were group housed, five animals in each cage, with free access to water and food. The animals were housed at least one week after arrival prior to surgery and use in the experiments. Each rat was used only once for microdialysis.
(§2) We use a modified version (Waters et al., 1994) of the I-shaped probe (Santiago M & Westerink B H C, 1990). The dialysis membrane we use is the AN69 polyacrylonitrile/sodiummethalylsulfonate copolymer (HOSPAL; o.d./i.d. 310/220 μm: Gambro, Lund, Sweden). In the dorsal striatum we use probes with an exposed length of 3 mm of dialysis membrane and in the prefrontal cortex the corresponding length is 2.5 mm. The rats were operated under isoflurane inhalationanesthesia while mounted into a Kopf stereotaxic instrument. Co-ordinates were calculated relative to bregma; dorsal striatum AP +1, ML ±2.6, DV −6.3; Pf cortex, AP +3.2, 8° ML ±1.2, DV −4.0 according to (Paxinos G & Watson C, 1986). The dialysis probe was positioned in a burr hole under stereotaxic guidance and cemented with phosphatine dental cement.
(§3) The rats were housed individually in cages for 48 h before the dialysis experiments, allowing them to recover from surgery and minimizing the risk of drug interactions with the anaesthetic during the following experiments. During this period the rats had free access to food and water. On the day of experiment the rats were connected to a micro perfusion pump via a swiwel and were replaced in the cage where they could move freely within its confinements. The perfusion medium was a Ringer's solution containing in mmol/l: NaCl; 140, CaCl2; 1.2, KCl; 3.0, MgCl2; 1.0 and ascorbic acid; 0.04 according to (Moghaddam B & Bunney B S, 1989). The pump was set to a perfusion speed of 2 μl/min and 40 μl samples were collected every 20 min. Each sample was analyzed at two HPLC systems. On an autoinjector (CMA 200) with a 10-port valve (Valco C10WE), holding two sample loops in series (4 μl and 20 μl), each brain dialysate sample is loaded in both loops simultaneously. […] The currents generated by the two EC detectors are converted to digital data and evaluated using Chromeleon software (Dionex) on a PC. The method sample turn over time was 4.5 min and two parallel experiments are normally analyzed simultaneously on the system. […]

Series [2] concerns Norepinephrine (NA) in Prefrontal Cortex. Description: Microdialysis in awake and freely moving rats, NA in prefrontal cortex. It counts as in vivo, rat. To be noted: 50 μmol/kg s.c., awake freely moving rats.
From the text: as §1, §2, §3

Series [3] has as its system Dopamine (DA) in Prefrontal Cortex. Description: Microdialysis in awake and freely moving rats, DA in prefrontal cortex. It counts as in vivo, rat. To be noted: 50 μmol/kg s.c., awake freely moving rats.
From the text: as §1, §2, §3

The subject of series [4] is Serotonin (5-HT) in Striatum. Description: Microdialysis in awake and freely moving rats, 5-HT in striatum. In kind it is in vivo, rat. The conditions noted are these: 50 μmol/kg s.c., awake freely moving rats.
From the text: as §1, §2, §3

Series [5] deals with Serotonin (5-HT) in Prefrontal Cortex. Description: Microdialysis in awake and freely moving rats, 5-HT in prefrontal cortex. It counts as in vivo, rat. The conditions noted are these: 50 μmol/kg s.c., awake freely moving rats.
From the text: as §1, §2, §3

Series [6] deals with Dopamine (DA) in Striatum. In words: Microdialysis in awake and freely moving rats, DA in striatum. To be noted: 50 μmol/kg s.c., awake freely moving rats. In kind it is in vivo, rat.
From the text: as §1, §2, §3

Structures can show the parent of a compound that is named as a salt.

For orientation: melting point means the temperature, or range, at which the solid turns liquid. The compound `CCN1CCC(OC)(c2cccc(F)c2F)C1` (centres unmarked) (as salt: fumaric acid salt) [Example 13, 3-(2,3-difluorophenyl)-1-ethyl-3-methoxypyrrolidine] came in with a melting point of 94 to 98 °C.
On the same count and under the same terms, with `CCN1CCC(OC)(c2ccc(F)c(F)c2)C1` (centres unmarked) (as salt: oxalic acid salt) [Example 10, 3-(3,4-difluorophenyl)-1-ethyl-3-methoxypyrrolidine] the figure was 135 to 136 °C.
Regarding `CCN1CCC(OC)(c2cccc(Cl)c2F)C1` (single isomer, unassigned; (+)) (as salt: fumaric acid salt) [Example 2, (+)-3-(3-chloro-2-fluorophenyl)-1-ethyl-3-methoxypyrrolidine], the melting point lay in the range of 131 to 133 °C.
The compound `CCN1CCC(OC)(c2cccc(F)c2F)C1` (single isomer, unassigned; (+)) (as salt: fumaric acid salt) [Example 6, (+)-3-(2,3-difluorophenyl)-1-ethyl-3-methoxypyrrolidine] had a melting point of 104 to 106 °C.
On to `COC1(c2cccc(Cl)c2F)CCNC1` (single isomer, unassigned; (+)) (as salt: oxalic acid salt) [Example 1, (+)-3-(3-chloro-2-fluorophenyl)-3-methoxypyrrolidine], for which the melting point lay in the range of 183 to 185 °C.
Turning to `COC1(c2cccc(F)c2F)CCNC1` (single isomer, unassigned; (+)) (as salt: oxalic acid salt) [Example 5, (+)-3-(2,3-difluorophenyl)-3-methoxypyrrolidine], the melting point was 182 to 184 °C.
The same measure, in the same setting: with `COC1(c2cc(F)cc(F)c2)CCNC1` (single isomer, unassigned; (+)) (as salt: oxalic acid salt) [Example 14, (+)-3-(3,5-difluorophenyl)-3-methoxypyrrolidine] the figure was 185 to 187 °C.
For `COC1(c2cccc(Cl)c2F)CCNC1` (single isomer, unassigned; (+)) [Example 1, (+)-3-(3-chloro-2-fluorophenyl)-3-methoxypyrrolidine], the “NA Stri ± SEM, maximum effect compared to baseline values” in series [1] was 164 ± 22% of control. Also, the “NA PFC ± SEM, maximum effect compared to baseline values” in series [2] is recorded as 660 ± 38% of control. In addition, in series [3], the “DA PFC ± SEM, maximum effect compared to baseline values” was 459 ± 103% of control. Further, in series [4], the “5-HT Stri ± SEM, maximum effect compared to baseline values” is reported as 350 ± 28% of control. The “5-HT PFC ± SEM, maximum effect compared to baseline values” in series [5] is on record as 327 ± 58% of control. Moreover, the “DA Stri ± SEM, maximum effect compared to baseline values” in series [6] is on record as 122 ± 8% of control.
For `COC1(c2cccc(F)c2F)CCNC1` (single isomer, unassigned; (+)) [Example 5, (+)-3-(2,3-difluorophenyl)-3-methoxypyrrolidine], the “NA Stri ± SEM, maximum effect compared to baseline values” in series [1] is 168% of control. Besides, in series [2], the “NA PFC ± SEM, maximum effect compared to baseline values” was 437 ± 25% of control. Also, the “DA PFC ± SEM, maximum effect compared to baseline values” in series [3] was 353 ± 61% of control. In series [4], the “5-HT Stri ± SEM, maximum effect compared to baseline values” is 296 ± 55% of control. The “5-HT PFC ± SEM, maximum effect compared to baseline values” in series [5] is listed as 260 ± 19% of control. Moreover, the “DA Stri ± SEM, maximum effect compared to baseline values” in series [6] is reported as 116 ± 0% of control.
For `CCN1CCC(OC)(c2cccc(F)c2F)C1` (single isomer, unassigned; (+)) [Example 6, (+)-3-(2,3-difluorophenyl)-1-ethyl-3-methoxypyrrolidine], in series [1], the “NA Stri ± SEM, maximum effect compared to baseline values” is listed as 113% of control. In addition, in series [2], the “NA PFC ± SEM, maximum effect compared to baseline values” is 285 ± 17% of control. Moreover, in series [3], the “DA PFC ± SEM, maximum effect compared to baseline values” was 297 ± 18% of control. The “5-HT Stri ± SEM, maximum effect compared to baseline values” in series [4] is on record as 138 ± 9% of control. The “5-HT PFC ± SEM, maximum effect compared to baseline values” in series [5] is listed as 157 ± 6% of control. For the same compound, the “DA Stri ± SEM, maximum effect compared to baseline values” in series [6] is given as 133 ± 9% of control.
Regarding `CCN1CCC(OC)(c2cccc(F)c2F)C1` (single isomer, unassigned; (-)) (as salt: fumaric acid salt) [Example 8, (−)-3-(2,3-difluorophenyl)-1-ethyl-3-methoxypyrrolidine], the melting point was 105 to 107 °C.
Regarding `CCN1CCC(OC)(c2cccc(F)c2F)C1` (single isomer, unassigned; (-)) [Example 8, (−)-3-(2,3-difluorophenyl)-1-ethyl-3-methoxypyrrolidine], in series [1], the “NA Stri ± SEM, maximum effect compared to baseline values” is listed as 169 ± 28% of control. For the same compound, in series [2], the “NA PFC ± SEM, maximum effect compared to baseline values” is listed as 282% of control. For the same compound, the “DA PFC ± SEM, maximum effect compared to baseline values” in series [3] is recorded as 252% of control. Besides, the “5-HT Stri ± SEM, maximum effect compared to baseline values” in series [4] is reported as 187% of control. Further, in series [5], the “5-HT PFC ± SEM, maximum effect compared to baseline values” is given as 197% of control. The “DA Stri ± SEM, maximum effect compared to baseline values” in series [6] was 119 ± 3% of control.
